Like-named read-outs stand apart in the source and are kept apart here.
Tested on: recombinant NL4-3 virus (Renilla luciferase) in MT-2 cells
Assay: HIV cell culture assay (antiviral activity, luciferase readout in infected MT-2 cells)
Format: cell-based
Conditions: Renilla
Procedure: HIV cell culture assay—MT-2 cells, 293T cells and the proviral DNA clone of NL4-3 virus were obtained from the NIH AIDS Research and Reference Reagent Program. MT-2 cells were propagated in RPMI 1640 media supplemented with 10% heat inactivated fetal bovine serum (FBS), 100 ug/ml penicillin G and up to 100 units/ml streptomycin. The 293T cells were propagated in DMEM media supplemented with 10% heat inactivated FBS, 100 ug/ml penicillin G and 100 ug/ml streptomycin. A recombinant NL4-3 proviral clone, in which a section of the nef gene was replaced with the Renilla luciferase gene, was used to make the reference virus used in these studies. The recombinant virus was prepared through transfection of the recombinant NL4-3 proviral clone into 293T cells using Transit-293 Transfection Reagent from Mirus Bio LLC (Madison, Wis.). Supernatent was harvested after 2-3 days after transfection, and the amount of virus present was titered in MT-2 cells using luciferase enzyme activity as a marker. Luciferase activity was quantitated using the EnduRen Live Cell Substrate from Promega (Madison, Wis.). Antiviral activities of compounds toward the recombinant virus were quantified by measuring luciferase activity in MT-2 cells infected for 4-5 days with the recombinant virus in the presence of serial dilutions of the compound.
The 50% effective concentration (EC50) was calculated by using the exponential form of the median effect equation where (Fa)=1/[1+(ED50/drug conc.)^m](Johnson V A, Byington R T. Infectivity Assay. In Techniques in HIV Research. ed. Aldovini A, Walker B D. 71-76. New York: Stockton Press. 1990).

[1] = NL43, read-out: Activity, antiviral activity class, recombinant NL4-3 Renilla luciferase virus in MT-2 cells
[2] = NL43, recombinant NL4-3 Renilla luciferase virus in MT-2 cells

Compound | EC50 [1] [nM] | EC50 [2] [nM]
CN(C(=O)[C@H](Cc1ccccc1)NC(=O)NS(=O)(=O)c1ccccc1OC(F)(F)F)c1ccc2c(c1)OCO2 [Example 14, (S)—N-(benzo[d][1,3]dioxol-5-yl)-N-methyl-3-phenyl-2-(3-((2-(trifluoromethoxy)phenyl)sulfonyl)ureido)propanamide] | < 100 | 
CN(C(=O)[C@H](Cc1ccccc1)NC(=O)NS(=O)(=O)c1cccc(Cl)c1Cl)c1ccc2c(c1)OCO2 [Example 15, (S)—N-(benzo[d][1,3]dioxol-5-yl)-2-(3-((2,3-dichlorophenyl)sulfonyl)ureido)-N-methyl-3-phenylpropanamide] | < 100 | 
Cc1ccc(F)cc1S(=O)(=O)NC(=O)N[C@@H](Cc1ccccc1)C(=O)N(C)c1ccc2c(c1)OCO2 [Example 16, (S)—N-(benzo[d][1,3]dioxol-5-yl)-2-(3-((5-fluoro-2-methylphenyl)sulfonyl)ureido)-N-methyl-3-phenylpropanamide] | < 100 | 
CN(C(=O)[C@H](Cc1ccccc1)NC(=O)NS(=O)(=O)c1ccccc1C(F)(F)F)c1ccc2c(c1)OCO2 [Example 17, (S)—N-(benzo[d][1,3]dioxol-5-yl)-N-methyl-3-phenyl-2-(3-((2-(trifluoromethyl)phenyl)sulfonyl)ureido)propanamide] | 100 to 1000 | 
CN(C(=O)[C@H](Cc1ccccc1)NC(=O)NS(=O)(=O)c1ccc(F)cc1F)c1ccc2c(c1)OCO2 [Example 18, (S)—N-(benzo[d][1,3]dioxol-5-yl)-2-(3-((2,4-difluorophenyl)sulfonyl)ureido)-N-methyl-3-phenylpropanamide] | 100 to 1000 | 200
CN(C(=O)[C@H](Cc1ccccc1)NC(=O)NS(=O)(=O)c1cccc(Br)c1)c1ccc2c(c1)OCO2 [Example 19, (S)—N-(benzo[d][1,3]dioxol-5-yl)-2-(3-((3-bromophenyl)sulfonyl)ureido)-N-methyl-3-phenylpropanamide] | 100 to 1000 | 
COc1cccc(S(=O)(=O)NC(=O)N[C@@H](Cc2ccccc2)C(=O)N(C)c2ccc3c(c2)OCO3)c1 [Example 20, (S)—N-(benzo[d][1,3]dioxol-5-yl)-2-(3-((3-methoxyphenyl)sulfonyl)ureido)-N-methyl-3-phenylpropanamide] | < 100 | 90
CN(C(=O)[C@H](Cc1ccccc1)NC(=O)NS(=O)(=O)c1ccc([N+](=O)[O-])cc1)c1ccc2c(c1)OCO2 [Example 21, (S)—N-(benzo[d][1,3]dioxol-5-yl)-N-methyl-2-(3-((4-nitrophenyl)sulfonyl)ureido)-3-phenylpropanamide] | 1000 to 10000 | 
CN(C(=O)[C@H](Cc1ccccc1)NC(=O)NS(=O)(=O)c1ccc(F)cc1)c1ccc2c(c1)OCO2 [Example 22, (S)—N-(benzo[d][1,3]dioxol-5-yl)-2-(3-((4-fluorophenyl)sulfonyl)ureido)-N-methyl-3-phenylpropanamide] | 100 to 1000 | 
COC(=O)c1ccccc1S(=O)(=O)NC(=O)N[C@@H](Cc1ccccc1)C(=O)N(C)c1ccc2c(c1)OCO2 [Example 23, (S)-methyl 2-(N-((1-(benzo[d][1,3]dioxol-5-yl(methyl)amino)-1-oxo-3-phenylpropan-2-yl)carbamoyl)sulfamoyl)benzoate] | 1000 to 10000 | 
CN(C(=O)[C@H](Cc1ccccc1)NC(=O)NS(=O)(=O)CCc1ccccc1)c1ccc2c(c1)OCO2 [Example 24, (S)—N-(benzo[d][1,3]dioxol-5-yl)-N-methyl-2-(3-(phenethylsulfonyl)ureido)-3-phenylpropanamide] | 100 to 1000 | 
CN(C(=O)[C@H](Cc1ccccc1)NC(=O)NS(=O)(=O)CCCc1ccccc1)c1ccc2c(c1)OCO2 [Example 25, (S)—N-(benzo[d][1,3]dioxol-5-yl)-N-methyl-3-phenyl-2-(3-((3-phenylpropyl)sulfonyl)ureido)propanamide] | 100 to 1000 | 930
CN(C(=O)[C@H](Cc1ccccc1)NC(=O)NS(=O)(=O)c1ccc(F)c(F)c1)c1ccc2c(c1)OCO2 [Example 26, (S)—N-(benzo[d][1,3]dioxol-5-yl)-2-(3-((3,4-difluorophenyl)sulfonyl)ureido)-N-methyl-3-phenylpropanamide] | 100 to 1000 | 
Cc1ccc(S(=O)(=O)NC(=O)N[C@@H](Cc2ccccc2)C(=O)N(C)c2ccc3c(c2)OCO3)s1 [Example 27, (S)—N-(benzo[d][1,3]dioxol-5-yl)-N-methyl-2-(3-((5-methylthiophen-2-yl)sulfonyl)ureido)-3-phenylpropanamide] | 100 to 1000 | 
Cc1c(Cl)cccc1S(=O)(=O)NC(=O)N[C@@H](Cc1ccccc1)C(=O)N(C)c1ccc2c(c1)OCO2 [Example 28, (S)—N-(benzo[d][1,3]dioxol-5-yl)-2-(3-((3-chloro-2-methylphenyl)sulfonyl)ureido)-N-methyl-3-phenylpropanamide] | < 100 | 
CN(C(=O)[C@H](Cc1ccccc1)NC(=O)NS(=O)(=O)c1ccccc1Br)c1ccc2c(c1)OCO2 [Example 29, (S)—N-(benzo[d][1,3]dioxol-5-yl)-2-(3-((2-bromophenyl)sulfonyl)ureido)-N-methyl-3-phenylpropanamide] | < 100 | 
COc1ccc(OC)c(S(=O)(=O)NC(=O)N[C@@H](Cc2ccccc2)C(=O)N(C)c2ccc3c(c2)OCO3)c1 [Example 30, (S)—N-(benzo[d][1,3]dioxol-5-yl)-2-(3-((2,5-dimethoxyphenyl)sulfonyl)ureido)-N-methyl-3-phenylpropanamide] | < 100 | 
CN(C(=O)[C@H](Cc1ccccc1)NC(=O)NS(=O)(=O)c1cccs1)c1ccc2c(c1)OCO2 [Example 31, (S)—N-(benzo[d][1,3]dioxol-5-yl)-N-methyl-3-phenyl-2-(3-(thiophen-2-ylsulfonyl)ureido)propanamide] | 100 to 1000 | 
CN(C(=O)[C@H](Cc1ccccc1)NC(=O)NS(=O)(=O)c1cc(Cl)sc1Cl)c1ccc2c(c1)OCO2 [Example 32, (S)—N-(benzo[d][1,3]dioxol-5-yl)-2-(3-((2,5-dichlorothiophen-3-yl)sulfonyl)ureido)-N-methyl-3-phenylpropanamide] | < 100 | 70
Cc1nn(C)c(Cl)c1S(=O)(=O)NC(=O)N[C@@H](Cc1ccccc1)C(=O)N(C)c1ccc2c(c1)OCO2 [Example 33, (S)—N-(benzo[d][1,3]dioxol-5-yl)-2-(3-((5-chloro-1,3-dimethyl-1H-pyrazol-4-yl)sulfonyl)ureido)-N-methyl-3-phenylpropanamide] | 100 to 1000 | 210
CN(C(=O)[C@H](Cc1ccccc1)NC(=O)NS(=O)(=O)c1ccccc1F)c1ccc2c(c1)OC(F)(F)O2 [Example 34, (S)—N-(2,2-difluorobenzo[d][1,3]dioxol-5-yl)-2-(3-((2-fluorophenyl)sulfonyl)ureido)-N-methyl-3-phenylpropanamide] | 100 to 1000 | 
CN(C(=O)[C@H](Cc1cc(F)cc(F)c1)NC(=O)NS(=O)(=O)c1ccccc1F)c1ccc2c(c1)OC(F)(F)O2 [Example 35, (S)—N-(2,2-difluorobenzo[d][1,3]dioxol-5-yl)-3-(3,5-difluorophenyl)-2-(3-((2-fluorophenyl)sulfonyl)ureido)-N-methylpropanamide] | 100 to 1000 | 
CN(C(=O)[C@H](Cc1ccccc1)NC(=O)NS(=O)(=O)c1ccccc1)c1ccc2c(c1)OC(F)(F)O2 [Example 36, (S)—N-(2,2-difluorobenzo[d][1,3]dioxol-5-yl)-N-methyl-3-phenyl-2-(3-(phenylsulfonyl)ureido)propanamide] | 1000 to 10000 | 
Cc1ccccc1S(=O)(=O)NC(=O)N[C@@H](Cc1ccccc1)C(=O)N(C)c1ccc2c(c1)OC(F)(F)O2 [Example 37, (S)—N-(2,2-difluorobenzo[d][1,3]dioxol-5-yl)-N-methyl-3-phenyl-2-(3-(o-tolylsulfonyl)ureido)propanamide] | 100 to 1000 | 
CN(C(=O)[C@H](Cc1ccccc1)NC(=O)NS(=O)(=O)c1ccccc1Cl)c1ccc2c(c1)OC(F)(F)O2 [Example 38, (S)-2-(3-((2-chlorophenyl)sulfonyl)ureido)-N-(2,2-difluorobenzo[d][1,3]dioxol-5-yl)-N-methyl-3-phenylpropanamide] | 100 to 1000 | 310
CN(C(=O)[C@H](Cc1cc(F)cc(F)c1)NC(=O)NS(=O)(=O)c1ccccc1Cl)c1ccc2c(c1)OC(F)(F)O2 [Example 39, (S)-2-(3-((2-chlorophenyl)sulfonyl)ureido)-N-(2,2-difluorobenzo[d][1,3]dioxol-5-yl)-3-(3,5-difluorophenyl)-N-methylpropanamide] | 100 to 1000 | 
Cc1ccccc1S(=O)(=O)NC(=O)N[C@@H](Cc1cc(F)cc(F)c1)C(=O)N(C)c1ccc2c(c1)OC(F)(F)O2 [Example 40, (S)—N-(2,2-difluorobenzo[d][1,3]dioxol-5-yl)-3-(3,5-difluorophenyl)-N-methyl-2-(3-(o-tolylsulfonyl)ureido)propanamide] | 100 to 1000 | 
CN(C(=O)[C@H](Cc1cc(F)cc(F)c1)NC(=O)NS(=O)(=O)c1ccccc1)c1ccc2c(c1)OC(F)(F)O2 [Example 41, (S)—N-(2,2-difluorobenzo[d][1,3]dioxol-5-yl)-3-(3,5-difluorophenyl)-N-methyl-2-(3-(phenylsulfonyl)ureido)propanamide] | 100 to 1000 | 
